The values below come from PubChem BioAssay (NCI).

Structures are written as SMILES.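 Cultured in 96-well plates, cells were exposed to test compound for 48 hours across five concentrations. Here, GI50 denotes the concentration required for 50% inhibition of growth. At the TGI there is no net growth.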

Some test systems named below: OVCAR-5 ovarian; A549 NSCLC; SK-MEL-28 melanoma; CAKI-1 renal; HCC-2998 colon; SF-295 CNS; KM12 colon; K-562 leukemia; RXF 393 renal; HCT-15 colon.
Holding throughout (experiment): DTP human tumour cell line panel, 48 h

As usually defined, the TGI is the concentration giving total growth inhibition. Lower therefore signals more potent growth arrest. `CC(=O)NNc1nc(C)c(C(=O)/C=C/c2ccc(Cl)cc2)s1`: the TGI with OVCAR-5 ovarian, in the assay on A549 NSCLC, with SK-MEL-28 melanoma, with CAKI-1 renal, in the assay on HCC-2998 colon and in the assay with SF-295 CNS was greater than 100 µM in each case. Moreover, the TGI in the assay on KM12 colon, in the assay with K-562 leukemia and in the assay on RXF 393 renal was greater than 100 µM throughout.

`COC(=O)[C@@H](C)[C@H]1CC[C@@](C)(CCC2=C(C)CC3C=C(C)CCC3C2(C)C)OO1` (stereo partly drawn): the concentration for total growth inhibition (TGI) in the assay on OVCAR-5 ovarian was determined as 3.27 µM; in the assay on A549 NSCLC, 3.12 µM; in the assay on SK-MEL-28 melanoma, 3.22 µM; in the assay with CAKI-1 renal, 2.71 µM; with HCT-15 colon it was 2.82 µM; in the assay with HCC-2998 colon, 2.65 µM. Moreover, the values for the TGI in the assay on SF-295 CNS, with KM12 colon and in the assay with RXF 393 renal were 3.2 µM, 2.9 µM and 2.84 µM, respectively.

Regarding `COC1CCC(OC)C(C2(C3CC(OC)CCC3OC)OC(=O)c3ccccc32)C1` (stereo not drawn), the total growth inhibition concentration (TGI) with OVCAR-5 ovarian, with A549 NSCLC, with CAKI-1 renal, in the assay on HCT-15 colon, in the assay on HCC-2998 colon and in the assay on SF-295 CNS was greater than 100 µM throughout. Moreover, the total growth inhibition concentration (TGI) in the assay with KM12 colon, with K-562 leukemia and in the assay on RXF 393 renal was greater than 100 µM in each case.

As to `CC(C(=O)c1ccccc1)C1(O)C(=O)Nc2ccc(Cl)cc21` (stereo not drawn), the TGI in the assay with OVCAR-5 ovarian, in the assay on A549 NSCLC, with SK-MEL-28 melanoma, in the assay on CAKI-1 renal, in the assay on HCT-15 colon and in the assay with HCC-2998 colon was greater than 100 µM throughout. Moreover, the TGI in the assay with SF-295 CNS, in the assay with KM12 colon and in the assay on RXF 393 renal was greater than 100 µM in each case.

Turning to `Cc1ccc(S(=O)(=O)OC(COC(=O)c2ccccc2)C(OS(=O)(=O)c2ccc(C)cc2)C(OS(=O)(=O)c2ccc(C)cc2)C(COC(=O)c2ccccc2)OS(=O)(=O)c2ccc(C)cc2)cc1` (stereo not drawn), the TGI in the assay on A549 NSCLC, in the assay with SK-MEL-28 melanoma, with CAKI-1 renal, in the assay with HCT-15 colon, with HCC-2998 colon and in the assay with SF-295 CNS was greater than 100 µM throughout. Besides, the TGI in the assay with KM12 colon, in the assay on K-562 leukemia and in the assay with RXF 393 renal was greater than 100 µM in each case.

For `CCCCCCCCCCCCCCCCCCNC(=S)/N=C/c1c(O)c2ccccc2[nH]c1=O`, the TGI stood at 31.2 µM in the assay with OVCAR-5 ovarian; 47.6 µM in the assay on A549 NSCLC; 40.4 µM in the assay with SK-MEL-28 melanoma; 31.6 µM in the assay on CAKI-1 renal; 29.4 µM with HCT-15 colon; 31.1 µM with HCC-2998 colon. The TGI in the assay on SF-295 CNS worked out at 47.9 µM; with KM12 colon, 30.9 µM; in the assay on RXF 393 renal it was 53.5 µM.

As to `COC(=O)/C(C#N)=C(\N)C(Cl)(Cl)Cl`, the concentration for total growth inhibition (TGI) amounted to 12.7 µM in the assay with A549 NSCLC; 4.66 µM in the assay on SK-MEL-28 melanoma; 17.5 µM with CAKI-1 renal; 8.43 µM in the assay with HCT-15 colon; 9.41 µM in the assay with HCC-2998 colon; 19.4 µM in the assay on SF-295 CNS. Also, the TGI was determined as 15.8 µM with KM12 colon, 4.51 µM in the assay on K-562 leukemia and 3.77 µM with RXF 393 renal.

Consider `C=CCC1(C(=O)OC(C)(C)C)C(OC)=C(C(=O)OC(C)(C)C)C2C1C(C(=O)OC(C)(C)C)=C(OC)C2(CC=C)C(=O)OC(C)(C)C` (stereo not drawn), for which the total growth inhibition concentration (TGI) in the assay on OVCAR-5 ovarian, in the assay with A549 NSCLC, in the assay on SK-MEL-28 melanoma, with HCT-15 colon, in the assay on HCC-2998 colon and with SF-295 CNS was greater than 100 µM throughout. Further, the TGI with KM12 colon, with K-562 leukemia and in the assay on RXF 393 renal was greater than 100 µM throughout.

Take `CC(=O)OC12c3ccccc3-c3ccccc3C1C(C(=O)O)C2C(=O)O` (stereo not drawn): the total growth inhibition concentration (TGI) with OVCAR-5 ovarian, in the assay on SK-MEL-28 melanoma, in the assay on CAKI-1 renal, in the assay with HCT-15 colon, in the assay on HCC-2998 colon and with SF-295 CNS was greater than 10 µM throughout. In addition, the concentration for total growth inhibition (TGI) in the assay on KM12 colon, in the assay with K-562 leukemia and with RXF 393 renal was greater than 10 µM each time.

In the case of `COC(=O)C1CC(OC(C)=O)C=C2C(=O)CCC21` (stereo not drawn), the TGI with A549 NSCLC is greater than 100 µM; in the assay on SK-MEL-28 melanoma it was 33.8 µM; with CAKI-1 renal it was 55.8 µM; with HCT-15 colon it was 30.9 µM; in the assay on HCC-2998 colon, greater than 100 µM; in the assay on KM12 colon it was 31.6 µM. The TGI in the assay on K-562 leukemia stood at 29.3 µM; in the assay on RXF 393 renal, 29.8 µM.

On to `COc1ccc2oc(-c3ccc(OC)c(OC)c3OC)cc(=O)c2c1`, for which the TGI in the assay with OVCAR-5 ovarian, in the assay with A549 NSCLC, in the assay with SK-MEL-28 melanoma, with CAKI-1 renal, in the assay on HCC-2998 colon and with SF-295 CNS was greater than 100 µM throughout. Besides, the total growth inhibition concentration (TGI) with K-562 leukemia is greater than 100 µM; in the assay with RXF 393 renal, 93.8 µM.

One may read the GI50 as the concentration at which growth is held to half of that of the control. As to `COc1ccc(NC(=O)c2sc3nc(C)c(C(=O)/C=C/c4cccc(OC)c4)cc3c2N)cc1`, the GI50 was 1.62 µM with OVCAR-5 ovarian; 1.18 µM in the assay with A549 NSCLC; 1.96 µM in the assay with CAKI-1 renal; 1.01 µM with HCT-15 colon; 1.52 µM with HCC-2998 colon; 3.28 µM in the assay with SF-295 CNS. In addition, the GI50 was 1.45 µM in the assay on KM12 colon, 1.43 µM in the assay on K-562 leukemia and 0.916 µM in the assay with RXF 393 renal. Besides, the TGI is 9 µM in the assay on OVCAR-5 ovarian; 9.22 µM in the assay with A549 NSCLC; 6.99 µM in the assay with CAKI-1 renal; 2.42 µM in the assay on HCT-15 colon; 5.32 µM with HCC-2998 colon; greater than 50 µM in the assay with SF-295 CNS. Moreover, the concentration for total growth inhibition (TGI) in the assay on KM12 colon was 5.06 µM; with K-562 leukemia, greater than 50 µM; in the assay on RXF 393 renal, 1.84 µM.

For `CCOC(=O)C(=CNC(=S)N=Nc1c(O)[nH]c2ccccc12)C(=O)OCC`, the TGI in the assay with OVCAR-5 ovarian, in the assay on A549 NSCLC, with SK-MEL-28 melanoma, with CAKI-1 renal, in the assay with HCC-2998 colon and with SF-295 CNS was greater than 100 µM throughout. Besides, the concentration for total growth inhibition (TGI) with KM12 colon, in the assay on K-562 leukemia and in the assay with RXF 393 renal was greater than 100 µM each time.

For `O=C1CNC(=O)c2[nH]cnc2N1`, the TGI in the assay on OVCAR-5 ovarian, with A549 NSCLC, with SK-MEL-28 melanoma, in the assay with HCT-15 colon, with HCC-2998 colon and in the assay on SF-295 CNS was greater than 100 µM throughout. Further, the total growth inhibition concentration (TGI) in the assay with KM12 colon, in the assay on K-562 leukemia and in the assay on RXF 393 renal was greater than 100 µM in each case.

Turning to `N/N=C(\c1nc2ccc(Cl)cc2[nH]c1=O)C(O)c1ccc(Cl)c(Cl)c1` (stereo not drawn), the TGI in the assay with OVCAR-5 ovarian, in the assay on A549 NSCLC, with SK-MEL-28 melanoma, in the assay with HCT-15 colon, with HCC-2998 colon and in the assay with SF-295 CNS was greater than 100 µM in each case. Moreover, the TGI with KM12 colon, in the assay with K-562 leukemia and in the assay with RXF 393 renal was greater than 100 µM in each case.

Regarding `CC1(C)OC(=O)C(C#N)=C1C[n+]1ccccc1`, the TGI in the assay on OVCAR-5 ovarian, in the assay with SK-MEL-28 melanoma, with CAKI-1 renal, in the assay on HCT-15 colon, with HCC-2998 colon and in the assay with SF-295 CNS was greater than 10 µM each time. Further, the total growth inhibition concentration (TGI) with KM12 colon, in the assay with K-562 leukemia and in the assay on RXF 393 renal was greater than 10 µM in each case.

As for `COC1=C(Cl)C(=O)c2c(O)ccc(O)c2C1=O`, the TGI with OVCAR-5 ovarian came to 7.49 µM; in the assay with A549 NSCLC, 19.3 µM; with SK-MEL-28 melanoma, 6.73 µM; in the assay with CAKI-1 renal, 1.6 µM; with HCT-15 colon, 3.23 µM; with HCC-2998 colon, 27.3 µM. The values for the TGI in the assay on SF-295 CNS, in the assay on KM12 colon and with RXF 393 renal were 20.3 µM, 23.5 µM and 2.69 µM, respectively.

With `COC1=CC(c2ccc[nH]2)=N/C1=C\c1[nH]c(C)c(CC(=O)OCc2ccccc2)c1C`, the GI50 was 1.11 µM in the assay with OVCAR-5 ovarian; 0.361 µM in the assay on A549 NSCLC; 0.307 µM in the assay on CAKI-1 renal; 0.292 µM in the assay with HCT-15 colon; 0.252 µM with SF-295 CNS; 0.272 µM with KM12 colon. In addition, the GI50 with RXF 393 renal was 0.43 µM. In addition, the TGI in the assay on OVCAR-5 ovarian is 5.38 µM; with A549 NSCLC, 6.05 µM; with CAKI-1 renal, 2.27 µM; in the assay on HCT-15 colon, 1.1 µM; in the assay on SF-295 CNS, 1.1 µM; in the assay on KM12 colon, 2.28 µM. The compound further came in with a TGI in the assay on RXF 393 renal of 2.07 µM.

For the compound `CC1(C)C2CCC1C(=O)[C@@]1(C=CC(=O)CC1)C2` (stereo partly drawn), the TGI with OVCAR-5 ovarian, in the assay with A549 NSCLC, with SK-MEL-28 melanoma, with HCT-15 colon, in the assay with HCC-2998 colon and with SF-295 CNS was greater than 100 µM in each case. In addition, the total growth inhibition concentration (TGI) in the assay with KM12 colon, in the assay with K-562 leukemia and in the assay on RXF 393 renal was greater than 100 µM each time.
